The results in this text go back to patent publication US20260285853A1, “COMPOUNDS AND METHODS FOR MODULATING SPLICING” (REMIX THERAPEUTICS INC., priority 2023, published 2026).

Structures are written as SMILES.

Holding throughout (type): cell-based
The test system of experiment [1] is HTT mRNA. The experiment can be described thus: Splicing RT-qPCR assay (THP), Table 2A. The settings on record: Table 2A (THP); for AC50: AJ mRNA increase, read-out: HTT AJ (increase in alternative junction mRNA, AC50); for IC50: CJ mRNA decrease, read-out: HTT CJ (decrease in canonical junction mRNA, IC50).
Experiment [2] deals with MYB mRNA. The experiment is described as follows: Splicing RT-qPCR assay (THP), Table 2A. The settings on record: Table 2A (THP); for AC50: AJ mRNA increase, read-out: MYB AJ (increase in alternative junction mRNA, AC50); for IC50: CJ mRNA decrease, read-out: MYB CJ (decrease in canonical junction mRNA, IC50).
For experiment [3], the system named is HTT mRNA. The experiment can be described thus: Gene panel canonical junction qPCR assay, decrease in CJ mRNA, Table 3. The settings on record: decrease in canonical junction (CJ) mRNA, gene panel qPCR, Table 3. Summed up: (§1)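 A673 (DMEM, 10% FBS, 15,000 cells/well) or K562 (IMDM, 10% FBS) cells treated 24 h at 37 °C with 11-point 3-fold dilutions, top 10 uM, DMSO ≤0.25%. Canonical exon-exon junction mRNA measured by RT-qPCR, normalized to GAPDH, GUSB or PPIA and DMSO (ΔΔCt); IC50 from 4-parameter logistic fit.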

Experiment [4] deals with MYB mRNA. The experiment is described as above. The settings on record: decrease in canonical junction (CJ) mRNA, gene panel qPCR, Table 3. Summed up: as §1
Experiment [5] deals with SH-SY5Y (human neuroblastoma) cells. The experiment is described as follows: Cell viability, Cell Titer Glo 2.0 assay. The settings on record: read-out: Viability SHSY5Y.3 GI50. An outline of the steps: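 Toxicity screen in SH-SY5Y cells. Compounds were serially diluted in DMSO and then in medium, giving 0.1% DMSO final. Viability was read with CellTiter-Glo 2.0 after 72 h at 37 °C, 5% CO2, against medium-only blank wells.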

On to `CCNC1CCN(c2cc(F)c(C(=O)Nc3cn4cc(C)nc(OC)c4n3)c3nn(C)cc23)CC1` [Compound 351, 4-[4-(ethyl-amino)-1-piperidyl]-6-fluoro-N-(8-methoxy-6-methyl-imidazo[1,2-a]-pyrazin-2-yl)-2-methyl-indazole-7-carboxamide], for which the AC50 with HTT mRNA [1] and with MYB mRNA [2] was over 10000 nM in each case. Besides, the IC50 was over 10000 nM in the experiment on HTT mRNA [1], 1000 to 10000 nM in the experiment on MYB mRNA [2], over 10000 nM in the experiment on HTT mRNA [3] and 1000 to 10000 nM in the experiment with MYB mRNA [4]. For the same compound, the GI50 in experiment [5] lay in the range of 1000 to 10000 nM.

Consider `CCNC1CCN(c2ccc(C(=O)Nc3cc(Oc4ccc(C#N)cc4)c4nc(C)cn4c3)c3nn(C)cc23)CC1` [Compound 352, N-[8-(4-cyanophenoxy)-2-methyl-imidazo[1,2-a]pyridin-6-yl]-4-[4-(ethylamino)-1-piperidyl]-2-methylindazole-7-carboxamide], for which the values for the AC50 in the experiment on HTT mRNA [1] and in the experiment on MYB mRNA [2] were over 10000 nM and under 100 nM, respectively. Moreover, the half-maximal inhibitory concentration (IC50) is 1000 to 10000 nM in the experiment on HTT mRNA [1], under 100 nM with MYB mRNA [2], 1000 to 10000 nM in the experiment on HTT mRNA [3] and under 100 nM in the experiment on MYB mRNA [4]. In addition, the GI50 in experiment [5] lay within 100 to 1000 nM.

In the case of `CCNC1CCN(c2ccc(C(=O)Nc3cc(Oc4cccnc4)c4nc(C)cn4c3)c3nn(C)cc23)CC1` [Compound 353, 4-[4-(ethylamino)-1-piperidyl]-2-methyl-N-[2-methyl-8-(3-pyridyloxy)-imidazo[1,2-a]-pyridin-6-yl]-indazole-7-carboxamide], the AC50 with HTT mRNA [1] was 1000 to 10000 nM; with MYB mRNA [2], 100 to 1000 nM. Also, the IC50 in the experiment with HTT mRNA [1] is 1000 to 10000 nM; in the experiment on MYB mRNA [2], 100 to 1000 nM; with HTT mRNA [3], 1000 to 10000 nM; with MYB mRNA [4], 100 to 1000 nM. The GI50 in experiment [5] was over 10000 nM.

As for `Cc1cn2cc(NC(=O)c3ccc(N4CCC(NC5(C)CC5)CC4)c4cn(C)nc34)cc(F)c2n1` [Compound 355, N-(8-fluoro-2-methyl-imidazo[1,2-a]-pyridin-6-yl)-2-methyl-4-[4-[(1-methyl-cyclopropyl)amino]-1-piperidyl]indazole-7-carboxamide], the half-maximal activity concentration (AC50) with HTT mRNA [1] was 100 to 1000 nM; with MYB mRNA [2], under 100 nM. In addition, the IC50 in the experiment with HTT mRNA [1] was 100 to 1000 nM; with MYB mRNA [2] it was under 100 nM; with HTT mRNA [3], 100 to 1000 nM; in the experiment with MYB mRNA [4], under 100 nM. For the same compound, in experiment [5], the GI50 lay in the range of 100 to 1000 nM.

With `Cc1cn2cc(NC(=O)c3c(F)cc(N4CCC(N(C)C)CC4)c4cn(C)nc34)nc2c(C)n1` [Compound 356, 4-[4-(dimethylamino)-1-piperidyl]-N-(6,8-dimethylimidazo[1,2-a]pyrazin-2-yl)-6-fluoro-2-methyl-indazole-7-carboxamide], the concentration at half-maximal activity (AC50) in the experiment with HTT mRNA [1] was 1000 to 10000 nM; with MYB mRNA [2] it was under 100 nM. The IC50 in the experiment on HTT mRNA [1] fell in the range of 1000 to 10000 nM; in the experiment on MYB mRNA [2] it was 100 to 1000 nM; in the experiment with HTT mRNA [3], 1000 to 10000 nM; with MYB mRNA [4], 100 to 1000 nM. For the same compound, in experiment [5], the GI50 was 1000 to 10000 nM.

On to `CCNC1CCN(c2cc(F)c(C(=O)Nc3cn4cc(C)nc4c(Cl)c3OC)c3nn(C)cc23)CC1` [Compound 357, N-(8-chloro-7-methoxy-2-methylimidazo[1,2-a]pyridin-6-yl)-4-[4-(ethylamino)-1-piperidyl]-6-fluoro-2-methyl-indazole-7-carboxamide], for which the AC50 was 100 to 1000 nM in the experiment on HTT mRNA [1] and under 100 nM in the experiment on MYB mRNA [2]. Besides, the concentration for half-maximal inhibition (IC50) in the experiment on HTT mRNA [1] was 100 to 1000 nM; with MYB mRNA [2], under 100 nM; in the experiment with HTT mRNA [3], 100 to 1000 nM; in the experiment on MYB mRNA [4], under 100 nM. Also, the GI50 in experiment [5] lay within 100 to 1000 nM.

Consider `CCNC1CCN(c2ccc(C(=O)Nc3cn4cc(C)nc(CC)c4n3)c3nn(C)cc23)CC1` [Compound 358, 4-[4-(ethylamino)-1-piperidy1]-N-(8-ethyl-6-methyl-imidazo[1,2-a]-pyrazin-2-yl)-2-methyl-indazole-7-carboxamide], for which the AC50 in the experiment on HTT mRNA [1] fell in the range of 1000 to 10000 nM; in the experiment on MYB mRNA [2], 100 to 1000 nM. For the same compound, the IC50 in the experiment on HTT mRNA [1], with MYB mRNA [2], in the experiment with HTT mRNA [3] and with MYB mRNA [4] was 1000 to 10000 nM in each case. Moreover, in experiment [5], the 50% growth inhibitory concentration (GI50) lay within 1000 to 10000 nM.
